The values that follow come from patent US20230047816A1 (priority 2018, published 2023).

Where only a bound is given, the exact number is not on record here.

This experiment deals with Recombinant full length human PFKFB3 (Homo sapiens, UniProt Q16875). Kind of experiment: PFKFB3 kinase activity assay (ADP production, ADP-Glo). In general terms: In ADP-Glo the light output rises with the ADP produced.
Sequence of Recombinant full length human PFKFB3 (Q16875 whole entry): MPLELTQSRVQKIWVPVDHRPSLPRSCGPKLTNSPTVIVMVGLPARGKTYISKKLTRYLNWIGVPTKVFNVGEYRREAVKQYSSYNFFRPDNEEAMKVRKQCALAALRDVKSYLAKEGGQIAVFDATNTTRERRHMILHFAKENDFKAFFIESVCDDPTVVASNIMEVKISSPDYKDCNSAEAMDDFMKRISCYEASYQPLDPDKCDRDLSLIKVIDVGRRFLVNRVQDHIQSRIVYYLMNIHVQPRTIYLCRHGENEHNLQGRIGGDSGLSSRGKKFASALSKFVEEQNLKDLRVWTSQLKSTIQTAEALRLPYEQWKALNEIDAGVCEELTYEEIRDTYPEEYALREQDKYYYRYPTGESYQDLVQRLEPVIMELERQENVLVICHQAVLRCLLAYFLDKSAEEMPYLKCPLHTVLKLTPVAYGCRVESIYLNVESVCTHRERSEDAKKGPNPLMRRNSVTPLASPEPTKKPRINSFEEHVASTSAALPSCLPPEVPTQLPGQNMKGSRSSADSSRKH

Turning to `COC(=O)c1ccc(-c2ccc(F)c(F)c2)cc1N1Cc2ccc(-c3c[nH]nn3)cc2C1=O` [Compound 110, 3′,4′-Difluoro-3-[1-oxo-6-(1H-[1,2,3]triazol-4-yl)-1,3-dihydroisoindol-2-yl]biphenyl-4-carboxylic acid methyl ester], the IC50 is less than 20 µM.

With `Cn1cncc1-c1ccc(N2C(=O)c3ccc(-c4c[nH]nn4)cc3C2=O)c(C(=O)O)c1` [Example 61], the IC50 lay in the range of 5 to 20 µM.

`O=C(O)c1cc(C(=O)O)c(C(=O)Nc2cc(-c3ccc(Cl)cc3Cl)ccc2C(=O)O)cc1O` [Example 43, 4-({4-carboxy-2′,4′-dichloro-[1,1′-biphenyl]-3-yl}carbamoyl)-6-hydroxybenzene-1,3-dicarboxylic acid]: the IC50 is less than 0.5 µM.

With `O=C(Nc1cc(Cl)c(-c2c[nH]nn2)cc1C(=O)O)c1cccc(-c2ccccc2)c1` [Example 18, 2-([1,1′-biphenyl]-3-carboxamido)-4-chloro-5-(1H-1,2,3-triazol-5-yl)benzoic acid], the IC50 was in the range of 5 to 20 µM.

`O=C(O)c1ccc2c(c1)C(=O)N(c1cc(-c3ccc(F)cc3)ccc1C(=O)O)C2=O` [Example 45]: the IC50 was less than 0.5 µM.

For the compound `O=C(O)c1ccc(-c2ccc(F)c(F)c2)cc1N1Cc2ccc(CO)cc2C1=O` [compound 158, 3′,4′-difluoro-3-(6-(hydroxymethyl)-1-oxoisoindolin-2-yl)biphenyl-4-carboxylic acid], the IC50 fell in the range of 5 to 20 µM.

Turning to `O=C(O)c1cc2c(cc1Br)C(=O)N(c1cc(-c3ccc(F)c(F)c3)ccc1C(=O)O)C2=O` [compound 169, 6-bromo-2-(4-carboxy-3′,4′-difluoro[1,1′-biphenyl]-3-yl)-1,3-dioxo-2,3-dihydro-1H-isoindole-5-carboxylic acid], the IC50 is less than 0.5 µM.

For `O=C(O)c1cc(-c2ccccc2)ccc1N1C(=O)c2ccc(-c3c[nH]nn3)cc2C1=O` [Example 31, 4-[1,3-Dioxo-5-(1H-[1,2,3]triazol-4-yl)-1,3-dihydroisoindol-2-yl]biphenyl-3-carboxylic Acid], the IC50 was less than 0.5 µM.

With `O=C(OCCN1CCCC1)c1ccc(-c2ccc(F)c(F)c2)cc1N1Cc2ccc(-c3c[nH]nn3)cc2C1=O` [Compound 115, 3′,4′-Difluoro-3-[1-oxo-6-(1H-[1,2,3]triazol-4-yl)-1,3-dihydroisoindol-2-yl]biphenyl-4-carboxylic acid 2-pyrrolidin-1-yl-ethyl ester], the IC50 was less than 20 µM.

Take `O=C(O)c1cc(C(=O)O)c(C(=O)Nc2cc(N3CC4CCC3C4)ccc2C(=O)O)cc1O` (stereo not shown) [Example 58, 4-[(5-{2-azabicyclo[2.2.1]heptan-2-yl}-2-carboxyphenyl)carbamoyl]-6-hydroxybenzene-1,3-dicarboxylic acid]: the IC50 is less than 0.5 µM.

As to `COc1ccc(-c2c(C)sc(N3C(=O)c4ccc(C(=O)O)cc4C3=O)c2C#N)cc1` [Example 6], the IC50 is less than 0.5 µM.

With `O=C(O)c1ccc(-c2ccc(F)c(F)c2)cc1N1Cc2ccc(-c3nn[nH]c3C(=O)c3ccccc3)cc2C1=O` [compound 162, 3-(6-(5-benzoyl-1H-1,2,3-triazol-4-yl)-1-oxoisoindolin-2-yl)-3′,4′-difluorobiphenyl-4-carboxylic acid], the IC50 is 0.5 to 2 µM.

Regarding `CN(C)CCOC(=O)c1ccc(-c2ccccc2)cc1N1C(=O)c2ccc(-c3nnn[nH]3)cc2C1=O` [Compound 97, 3-[1,3-Dioxo-5-(1H-tetrazol-5-yl)-1,3-dihydroisoindol-2-yl]biphenyl-4-carboxylic acid 2-dimethylamino-ethyl ester], the IC50 was less than 0.5 µM.

With `CS(=O)(=O)Nc1ccc2c(c1)C(=O)N(c1cc(-c3ccc(F)c(F)c3)ccc1C(=O)O)C2` [Compound 131, 3′,4′-Difluoro-3-(6-methanesulfonylamino-1-oxo-1,3-dihydro-isoindol-2-yl)-biphenyl-4-carboxylic Acid], the IC50 is less than 20 µM.

As to `COC(=O)c1ccc(-c2ccc(F)c(F)c2)cc1N1Cc2ccc(-c3nnn[nH]3)cc2C1=O` [Compound 99, 3′,4′-Difluoro-3-[1-oxo-6-(1H-tetrazol-5-yl)-1,3-dihydroisoindol-2-yl]biphenyl-4-carboxylic acid methyl ester], the IC50 is 5 to 20 µM.

As to `COC(=O)c1ccc(-c2ccccc2)cc1N1C(=O)c2ccc(C(=O)O)cc2C1=O` [Example 37], the IC50 lay within 0.5 to 2 µM.

On to `O=C(O)c1ccc(-c2ccc(F)c(F)c2)cc1NC(=O)c1cc(-c2cnn[nH]2)ccc1C(=O)O` [Example 21, 3-(2-carboxy-5-(1H-1,2,3-triazol-5-yl)benzamido)-3′,4′-difluoro-[1,1′-biphenyl]-4-carboxylic acid], for which the IC50 was less than 0.5 µM.

With `O=C(O)c1ccc(C(=O)O)c(C(=O)Nc2nc(-c3ccccc3)cs2)c1` [Example 40, 2-[(4-phenyl-1,3-thiazol-2-yl)carbamoyl]benzene-1,4-dicarboxylic acid], the IC50 is less than 20 µM.

For `COc1ccc(-c2c(C)sc(N3C(=O)c4ccc(C(=O)N[C@@H](CO)C(=O)O)cc4C3=O)c2C#N)cc1` [Example 16], the IC50 was 2 to 5 µM.

Regarding `COC(=O)c1cc(-c2ccccc2)c(OC)cc1N1C(=O)c2ccc(C(=O)O)cc2C1=O` [Example 42], the IC50 was 0.5 to 2 µM.

For the compound `O=C(O)c1ccc2c(c1)C(=O)N(c1cc(-c3ccc(F)c(F)c3)ccc1C(=O)O)C2` [Compound 126, 2-(4-Carboxy-3′,4′-difluoro-biphenyl-3-yl)-3-oxo-2,3-dihydro-1H-isoindole-5-carboxylic acid], the IC50 is less than 20 µM.

With `CC(=O)Nc1ccc2c(c1)C(=O)N(c1cc(-c3ccc(F)c(F)c3)ccc1C(=O)O)C2` [Compound 130, 3-(6-Acetylamino-1-oxo-1,3-dihydroisoindol-2-yl)-3′,4′-difluoro-biphenyl-4-carboxylic Acid], the IC50 is less than 20 µM.

As to `O=C(O)c1ccc(C(=O)O)c(C(=O)Nc2cc(-c3ccc(F)cc3)ccc2C(=O)O)c1` [Example 1, 2-({4-carboxy-4′-fluoro-[1,1′-biphenyl]-3-yl}carbamoyl)benzene-1,4-dicarboxylic acid], the IC50 fell in the range of 0.5 to 2 µM.

As to `COC(=O)c1ccc(-c2ccc(F)c(F)c2)cc1N1Cc2ccc(-n3cnnn3)cc2C1=O` [Compound 121, 3′,4′-Difluoro-3-(1-oxo-6-tetrazol-1-yl-1,3-dihydroisoindol-2-yl)biphenyl-4-carboxylic acid methyl ester], the IC50 was less than 20 µM.

Turning to `CC1(C)CCN(c2ccc(C(=O)O)c(NC(=O)c3cc(O)c(C(=O)O)cc3C(=O)O)c2)CC1` [Example 53, 4-{[2-carboxy-5-(4,4-dimethylpiperidin-1-yl)phenyl]carbamoyl}-6-hydroxybenzene-1,3-dicarboxylic acid], the IC50 was less than 0.5 µM.

Regarding `COc1ccc(-c2c(C)sc(N3C(=O)c4ccc(C(=O)NS(C)(=O)=O)cc4C3=O)c2C#N)cc1` [Example 14], the IC50 is 0.5 to 2 µM.

`COC(=O)c1ccc(-c2ccc(F)c(F)c2)cc1N1Cc2ccc(CO)cc2C1=O` [compound 157, methyl 3′,4′-difluoro-3-(6-(hydroxymethyl)-1-oxoisoindolin-2-yl)biphenyl-4-carboxylate]: the IC50 is less than 20 µM.

Consider `COc1ccc(-c2c(C)sc(N3C(=O)c4ccc(C(=O)NCC(=O)O)cc4C3=O)c2C#N)cc1` [compound 149, 2-(2-(3-cyano-4-(4-methoxyphenyl)-5-methylthiophen-2-yl)-1,3-dioxoisoindoline-5-carboxamido)acetic acid], for which the IC50 was less than 20 µM.

Turning to `COc1ccc(-c2c(C)sc(NC(=O)c3ccc(-c4c[nH]nn4)cc3C(N)=O)c2C#N)cc1` [Example 8, N1-[3-cyano-4-(4-methoxyphenyl)-5-methylthiophen-2-yl]-4-(2H-1,2,3-triazol-4-yl)benzene-1,2-dicarboxamide], the IC50 is 5 to 20 µM.

Consider `CN(C)C(=O)c1cc(C(=O)O)c(O)cc1C(=O)Nc1cc(-c2ccc(Cl)cc2Cl)ccc1C(=O)O` [Example 32, 3-(4-carboxy-2-(dimethylcarbamoyl)-5-hydroxybenzamido)-2′,4′-dichloro-[1,1′-biphenyl]-4-carboxylic acid], for which the IC50 was 0.5 to 2 µM.

As for `COc1ccc(-c2c(C)sc(N3C(=O)c4ccc(C(=O)N[C@@H](Cc5ccc(O)cc5)C(=O)O)cc4C3=O)c2C#N)cc1` [Compound 136, (2S)-2-({2-[3-Cyano-4-(4-methoxyphenyl)-5-methyl-thiophen-2-yl]-1,3-dioxo-2,3-dihydro-1H-isoindole-5-carbonyl}-amino)-3-(4-hydroxyphenyl)propanoic acid], the IC50 lay within 2 to 5 µM.

For `O=C1c2ccc(-c3c[nH]nn3)cc2C(=O)N1c1cc(-c2ccccc2)ccn1` [Compound 84, 2-(4-Phenylpyridin-2-yl)-5-(1H-[1,2,3]triazol-4-yl)-isoindole-1,3-dione], the IC50 lay within 5 to 20 µM.

Regarding `CCOC(=O)c1ccc(-c2ccc(Cl)cc2Cl)cc1NC(=O)c1cc(C(=O)O)c(O)cc1C(=O)O` [Example 60, 2-{[2′,4′-dichloro-4-(ethoxycarbonyl)-[1,1′-biphenyl]-3-yl]carbamoyl}-5-hydroxybenzene-1,4-dicarboxylic acid], the concentration for half-maximal inhibition (IC50) is less than 0.5 µM.

Consider `O=C(O)c1cc(C(=O)Nc2cc(-c3ccc(F)c(F)c3)ccc2C(=O)O)c(C(=O)O)cc1Cl` [Example 46, 2-({4-carboxy-3′,4′-difluoro-[1,1′-biphenyl]-3-yl}carbamoyl)-5-chlorobenzene-1,4-dicarboxylic acid], for which the IC50 is less than 0.5 µM.

On to `O=C(NS(=O)(=O)c1ccccc1)c1ccc2c(c1)C(=O)N(c1ccc(-c3ccccc3)cc1-c1nnn[nH]1)C2=O` [Compound 135, N-(Benzenesulfonyl)-2-(3-(1H-tetrazol-5-yl)-[1,1′-biphenyl]-4-yl)-1,3-dioxo-2,3-dihydro-1H-isoindole-5-carboxamide], for which the IC50 was 5 to 20 µM.

Consider `COC(=O)c1cc(-c2ccccc2)ccc1N1C(=O)c2ccc(C(=O)NS(C)(=O)=O)cc2C1=O` [Example 40], for which the IC50 is less than 20 µM.

Regarding `COC(=O)c1ccc(-c2ccccc2)cc1N1Cc2ccc(-c3c[nH]nn3)cc2C1=O` [Compound 91, 3-[1-Oxo-6-(1H-[1,2,3]triazol-4-yl)-1,3-dihydroisoindol-2-yl]biphenyl-4-carboxylic acid methyl ester], the IC50 was less than 20 µM.

One may read the IC50 as the concentration that gives 50% inhibition.
